Literature values as cited in PubChem BioAssay AID1259409 (Chemical Carcinogenesis Research Information System (CCRIS), 2018).
Where “and” joins values, the source holds several entries; their conditions need not be identical. Identical values can stand only once.

Test system: rodent chemically induced tumor inhibition, incidence and multiplicity
Experiment: CCRIS tumor inhibitor studies
Details: for outcome: 1 WK AFTER LAST AZOXYMETHANE INJECTION (STUDY DURATION: 36 WK), Route [Inhibitor]: DIET, Dose [Carcinogen]: 20 MG/KG 1X A WK FOR 2 WK

In the case of `COc1ccc(-c2cc(=O)c3c(OC)c(OC)c(OC)c(OC)c3o2)cc1OC`, the outcome (Carcinogen: AZOXYMETHANE [25843-45-2], Dose [Inhibitor]: 0.01% IN DIET FOR 34 WK, Species: RAT, Strain/Sex: F344/MALE, Target Tissue: Type of Lesion: LARGE INTESTINE: ADENOCARCINOMA) is given as 67, 55, 18%, not significant, the outcome (Carcinogen: AZOXYMETHANE [25843-45-2], Dose [Inhibitor]: 0.01% IN DIET FOR 34 WK, Species: RAT, Strain/Sex: F344/MALE, Target Tissue: Type of Lesion: LARGE INTESTINE: ADENOMA) is given as 33, 45, -36% and the outcome (Carcinogen: AZOXYMETHANE [25843-45-2], Dose [Inhibitor]: 0.05% IN DIET FOR 34 WK, Species: RAT, Strain/Sex: F344/MALE, Target Tissue: Type of Lesion: LARGE INTESTINE: ADENOCARCINOMA) is given as 67, 35, 48%, p<0.05. The outcome (Carcinogen: AZOXYMETHANE [25843-45-2], Dose [Inhibitor]: 0.05% IN DIET FOR 34 WK, Species: RAT, Strain/Sex: F344/MALE, Target Tissue: Type of Lesion: LARGE INTESTINE: ADENOMA) was 33, 50, -52%.
For `C=C(C)C1CC=C(CO)CC1` (stereo not given), the “tumour outcome (control, treated, inhibition, significance)” value (Carcinogen: 4-(METHYLNITROSAMINO)-1-(3-PYRIDYL)-1-BUTANONE, 64091-91-4, Dose [Inhibitor]: 0, 75 MG/KG BW 3/WK FOR 22 WK BEGINNING 1 WK PRIOR TO CARCINOGEN TREATMENT (STUDY DURATION: 23 WK), Route [Inhibitor]: INTRAPERITONEAL, Species: MOUSE, Strain/Sex: C3AF1/MALE, Target Tissue: Type of Lesion: LUNG: TUMOR, Dose [Carcinogen]: 100 MG/KG BW 1/WK FOR 2 WK, Promoter: NONE USED) is given as 100%, 79%, 21%, p<0.005, the “tumour outcome (control, treated, inhibition, significance)” value (Carcinogen: AZOXYMETHANE [25843-45-2], Dose [Inhibitor]: 1 G/KG IN DIET FOR 55 WK BEGINNING 2 WK PRIOR TO FIRST CARCINOGEN DOSE (STUDY DURATION: 55 WK), Route [Inhibitor]: ORAL, Species: RAT, Strain/Sex: F344/MALE, Target Tissue: Type of Lesion: COLON: ADENOCARCINOMA, Dose [Carcinogen]: 15 MG/KG BW 1/WK FOR 2 WK (STUDY DURATION: 55 WK), Promoter: NONE) is given as 78%, 64%, 18%, not significant and 78%, 56%, 29%, p<0.05 and the “tumour outcome (control, treated, inhibition, significance)” value (Carcinogen: AZOXYMETHANE [25843-45-2], Dose [Inhibitor]: 1 G/KG IN DIET FOR 55 WK BEGINNING 2 WK PRIOR TO FIRST CARCINOGEN DOSE (STUDY DURATION: 55 WK), Route [Inhibitor]: ORAL, Species: RAT, Strain/Sex: F344/MALE, Target Tissue: Type of Lesion: SMALL INTESTINE: ADENOCARCINOMA, Dose [Carcinogen]: 15 MG/KG BW 1/WK FOR 2 WK (STUDY DURATION: 55 WK), Promoter: NONE) is given as 31%, 28%, 9%, not significant. For the same compound, the “tumour outcome (control, treated, inhibition, significance)” value (Carcinogen: AZOXYMETHANE [25843-45-2], Dose [Inhibitor]: 2 G/KG IN DIET FOR 55 WK BEGINNING 2 WK PRIOR TO FIRST CARCINOGEN DOSE (STUDY DURATION: 55 WK), Route [Inhibitor]: ORAL, Species: RAT, Strain/Sex: F344/MALE, Target Tissue: Type of Lesion: SMALL INTESTINE: ADENOCARCINOMA, Dose [Carcinogen]: 15 MG/KG BW 1X/WK FOR 2 WK (STUDY DURATION: 55 WK), Promoter: NONE) was 31%, 11%, 64%, p<0.05.
For `CC(=O)O[C@@H]1[C@H]2[C@@H](OC(=O)c3ccccc3)[C@@H](OC(=O)c3ccccc3)[C@]3(C)[C@@H](OC(=O)c4ccccc4)[C@@H](OC(=O)c4ccccc4)C[C@@H](C)[C@@]13OC2(C)C`, the “tumour outcome (control, treated, inhibition, significance)” value (Carcinogen: 7,12-DIMETHYLBENZ[A]ANTHRACENE, 57-97-6, Dose [Inhibitor]: 0, 85 NMOL IN 0.1 ML ACETONE 2/WK APPLIED 1 HR POST EACH PROMOTER DOSE BEGINNING 1 WK POST CARCINOGEN DOSE AND CONTINUIN, Route [Inhibitor]: DERMAL, Species: MOUSE, Strain/Sex: ICR/FEMALE, Target Tissue: Type of Lesion: SKIN: TUMOR, Dose [Carcinogen]: 390 NMOL IN 0.1 ML ACETONE ONCE, Promoter: 12-O-TETRADECANOYLPHORBOL-13-ACETATE, 16561-29-8) is listed as 100%, 52%, 48%, not calculated and the “tumour outcome (control, treated, inhibition, significance)” value (Carcinogen: 7,12-DIMETHYLBENZ[A]ANTHRACENE, 57-97-6, Dose [Inhibitor]: 0, 85 NMOL IN 0.1 ML ACETONE 2/WK APPLIED 1 HR PRIOR TO EACH PROMOTER DOSE BEGINNING 1 WK POST CARCINOGEN DOSE AND CONTI, Route [Inhibitor]: DERMAL, Species: MOUSE, Strain/Sex: ICR/FEMALE, Target Tissue: Type of Lesion: SKIN: TUMOR, Dose [Carcinogen]: 390 NMOL IN 0.1 ML ACETONE ONCE, Promoter: 12-O-TETRADECANOYLPHORBOL-13-ACETATE, 16561-29-8) is listed as 100%, 86%, 14%, not calculated.
